Columns and labels:
[1] = system: ducksalad; assay: Test C flooded paddy test; assay type: in vivo, Heteranthera limosa; conditions: Flood, scale 0 to 100 (0 no effect, 100 complete control), 13 to 15 days
Outline: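 In-water treatment: compound dosed into 3 cm flood over soil, water level unchanged throughout. Controls run alongside; visual assessment at day 13–15.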

[2] = system: giant foxtail; assay: Test A postemergence; assay type: in vivo, Setaria faberii; conditions: 0 to 100 scale where 0 is no effect and 100 is complete control
Outline: (§1)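 Visual injury scored 0–100 (100 = complete control) against untreated controls about 10 days after treatment in a greenhouse. Test chemicals, formulated with surfactant in non-phytotoxic solvent, were sprayed on soil preemergence or on 2-10 cm, one- to two-leaf plants postemergence.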

[3] = system: giant foxtail; assay: Test A preemergence; assay type: in vivo, Setaria faberii
Outline: as §1

[4] = system: large (Lg) crabgrass; assay: Test A postemergence; assay type: in vivo, Digitaria sanguinalis; conditions: 0 to 100 scale where 0 is no effect and 100 is complete control
Outline: as §1

[5] = system: morningglory; assay: Test A postemergence; assay type: in vivo, Ipomoea spp.; conditions: 0 to 100 scale where 0 is no effect and 100 is complete control
Outline: as §1

[6] = system: barnyardgrass; assay: Test C flooded paddy test; assay type: in vivo, Echinochloa crus-galli; conditions: Flood, scale 0 to 100 (0 no effect, 100 complete control), 13 to 15 days
Text: (§2) At time of treatment, test pots were flooded to 3 cm above the soil surface, treated by application of test compounds directly to the paddy water, and then maintained at that water depth for the duration of the test. Treated plants and controls were maintained in a greenhouse for 13 to 15 days, after which time all species were compared to controls and visually evaluated. […] A dash (-) response means no test result.

[7] = system: velvetleaf; assay: Test A preemergence; assay type: in vivo, Abutilon theophrasti
Outline: as §1

[8] = system: Heteranthera limosa; assay: Test B flooded paddy test; assay type: in vivo; conditions: Flood, 250 g ai/ha; 0 to 100 scale where 0 is no effect and 100 is complete control
Outline: (§3)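 Flooded to 3 cm at the 2-leaf stage, pots received compound through the paddy water and were kept at that depth under greenhouse conditions. After 13–15 days, effect was rated by eye relative to controls, 0 = none and 100 = complete control.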

[9] = system: sedge, umbrella; assay: Test C flooded paddy test; assay type: in vivo, Cyperus difformis; conditions: Flood, scale 0 to 100 (0 no effect, 100 complete control), 13 to 15 days
Text: as §2

[10] = system: large (Lg) crabgrass; assay: Test A preemergence; assay type: in vivo, Digitaria sanguinalis
Outline: as §1

[11] = system: sedge, umbrella; assay: Test B flooded paddy test; assay type: in vivo, Cyperus difformis; conditions: Flood, 250 g ai/ha; 0 to 100 scale where 0 is no effect and 100 is complete control
Outline: as §3

[12] = system: rice; assay: Test C flooded paddy test; assay type: in vivo, Oryza sativa; conditions: Flood, scale 0 to 100 (0 no effect, 100 complete control), 13 to 15 days
Text: as §2

[13] = system: wheat; assay: Test A preemergence; assay type: in vivo, Triticum aestivum
Outline: as §1

[14] = system: morningglory; assay: Test A preemergence; assay type: in vivo, Ipomoea spp.
Outline: as §1

[15] = system: wheat; assay: Test A postemergence; assay type: in vivo, Triticum aestivum; conditions: 0 to 100 scale where 0 is no effect and 100 is complete control
Outline: as §1

[16] = system: corn; assay: Test A postemergence; assay type: in vivo, Zea mays; conditions: 0 to 100 scale where 0 is no effect and 100 is complete control
Outline: as §1

[17] = system: barnyardgrass; assay: Test A preemergence; assay type: in vivo, Echinochloa crus-galli
Outline: as §1

[18] = system: pigweed; assay: Test A preemergence; assay type: in vivo, Amaranthus retroflexus
Outline: as §1

[19] = system: corn; assay: Test A preemergence; assay type: in vivo, Zea mays
Outline: as §1

[20] = system: rice; assay: Test B flooded paddy test; assay type: in vivo, Oryza sativa; conditions: Flood, 250 g ai/ha; 0 to 100 scale where 0 is no effect and 100 is complete control
Outline: as §3

[21] = system: velvetleaf; assay: Test A postemergence; assay type: in vivo, Abutilon theophrasti; conditions: 0 to 100 scale where 0 is no effect and 100 is complete control
Outline: as §1

[22] = system: pigweed; assay: Test A postemergence; assay type: in vivo, Amaranthus retroflexus; conditions: 0 to 100 scale where 0 is no effect and 100 is complete control
Outline: as §1

[23] = system: barnyardgrass; assay: Test A postemergence; assay type: in vivo, Echinochloa crus-galli; conditions: 0 to 100 scale where 0 is no effect and 100 is complete control
Outline: as §1

[24] = system: barnyardgrass; assay: Test B flooded paddy test; assay type: in vivo, Echinochloa crus-galli; conditions: Flood, 250 g ai/ha; 0 to 100 scale where 0 is no effect and 100 is complete control
Outline: as §3

[25] = 500 g ai/ha, 0 to 100 scale where 0 is no effect and 100 is complete control

## CON=Cc1cccc(Oc2ncc(Cl)cn2)c1-n1cc(Br)cn1 [Compound 203]
[1]; 31 g ai/ha
  Plant response rating, Ducksalad: 0
[1]; 62 g ai/ha
  Plant response rating, Ducksalad: 50
[1]; 125 g ai/ha
  Plant response rating, Ducksalad: 70
[2]; 125 g ai/ha
  Foxtail, Giant plant response rating: 70
[2]; 500 g ai/ha
  Plant response rating, Foxtail, Giant: 80
[3]; 125 g ai/ha
  Foxtail, Giant plant response rating (0 to 100 scale): 90
[3]; [25]
  Foxtail, Giant plant response rating: 100
[4]; 125 g ai/ha
  Crabgrass, Large plant response rating: 60
[4]; 500 g ai/ha
  Plant response rating, Crabgrass, Large: 80
[5]; 125 g ai/ha
  Morningglory plant response rating: 20
[5]; 500 g ai/ha
  Plant response rating, Morningglory: 70
[6]; 31 g ai/ha
  Plant response rating, Barnyardgrass: 40
[6]; 62 g ai/ha
  Plant response rating, Barnyardgrass: 50
[6]; 125 g ai/ha
  Plant response rating, Barnyardgrass: 50
[7]; 125 g ai/ha
  Velvetleaf plant response rating (0 to 100 scale): 30
[7]; [25]
  Velvetleaf plant response rating: 40
[8]
  Plant response rating, Ducksalad: 90
[9]; 31 g ai/ha
  Plant response rating, Sedge, Umbrella: 50
[9]; 62 g ai/ha
  Plant response rating, Sedge, Umbrella: 75
[9]; 125 g ai/ha
  Plant response rating, Sedge, Umbrella: 85
[10]; 125 g ai/ha
  Crabgrass, Large plant response rating (0 to 100 scale): 100
[10]; [25]
  Crabgrass, Large plant response rating: 100
[11]
  Plant response rating, Sedge, Umbrella: 90
[12]; 31 g ai/ha
  Plant response rating, Rice: 0
[12]; 62 g ai/ha
  Plant response rating, Rice: 20
[12]; 125 g ai/ha
  Plant response rating, Rice: 20
[13]; 125 g ai/ha
  Wheat plant response rating (0 to 100 scale): 0
[13]; [25]
  Wheat plant response rating: 0
[14]; 125 g ai/ha
  Morningglory plant response rating (0 to 100 scale): 0
[14]; [25]
  Morningglory plant response rating: 10
[15]; 125 g ai/ha
  Wheat plant response rating: 0
[15]; 500 g ai/ha
  Plant response rating, Wheat: 20
[16]; 125 g ai/ha
  Corn plant response rating: 30
[16]; 500 g ai/ha
  Plant response rating, Corn: 50
[17]; 125 g ai/ha
  Barnyardgrass plant response rating (0 to 100 scale, 0 is no effect, 100 is complete control): 10
[17]; [25]
  Barnyardgrass plant response rating: 40
[18]; 125 g ai/ha
  Pigweed plant response rating (0 to 100 scale): 90
[18]; [25]
  Pigweed plant response rating: 100
[19]; 125 g ai/ha
  Corn plant response rating (0 to 100 scale): 0
[19]; [25]
  Corn plant response rating: 0
[20]
  Plant response rating, Rice: 10
[21]; 125 g ai/ha
  Velvetleaf plant response rating: 80
[21]; 500 g ai/ha
  Plant response rating, Velvetleaf: 90
[22]; 125 g ai/ha
  Pigweed plant response rating: 70
[22]; 500 g ai/ha
  Plant response rating, Pigweed: 90
[23]; 125 g ai/ha
  Barnyardgrass plant response rating: 40
[23]; 500 g ai/ha
  Plant response rating, Barnyardgrass: 70
[24]
  Plant response rating, Barnyardgrass: 0
